Assay results published in paper PMC11456916, “A screen for cell envelope stress uncovers an inhibitor of prolipoprotein diacylglyceryl transferase, Lgt, in Escherichiacoli” (iScience, 2024).

Test system: 356 CRISPRi constructs in E. coli ΔtolC-pore
Assay: CRISPRi collection fitness screen with sub-inhibitory compound
Assay type: cell-based
Details: for Growth represented as mean colony biomass: 1μg/ml MAC0452936, 6ng/ml LolCDE-in-1, 250 ng/ml Vancomycin, 7 ng/ml CHIR090, n=4; for Growth, mean colony biomass (n=4): + 7 ng/ml CHIR090
Excerpt: To that end, we screened the E. coli CRISPRi collection in the ΔtolC-pore genetic background with a sub-inhibitory concentration of MAC-0452936 and measured the fitness of all 356 CRISPRi mutants (Figure 4C and Data S4). […] To that end, we introduced either an arabinose inducible copy of lgt supplied on the pCHAP9231 plasmid[48] or the pBAD19s plasmid as a control into E. coli ΔtolC-pore and tested the potency of MAC-0452936 (Figure 4E). […] To test this hypothesis, we constructed E. coli ΔlgtΔtolC-pore with pCHAP9231[48] so that lgt expression was driven solely by arabinose from the plasmid.
For screens of the CRISPRi collection with MAC-0452936, the mobile CRISPRi collection was first conjugated into E. coli ΔtolC-pore as previously described.[30] The CRISPRi collection was then arrayed on solid agar at 1536 density using the Singer-ROTOR, such that each CRISPRi strain is arrayed in technical quadruplicate. […] The screens were conducted without CRISPRi induction, using just the 5–10% basal knockdown from the pFD152 CRISPRi plasmid. Following overnight growth, plates were imaged using high-resolution scanners (Epson Perfection v750), and colony biomass for each mutant was determined.

SMILES: C[C@@H](O)[C@H](NC(=O)c1ccc(C#Cc2ccc(CN3CCOCC3)cc2)cc1)C(=O)NO [CHIR090]
- Growth represented as mean colony biomass (gRNA accA): 0.9728
- Growth, mean colony biomass (n=4) (gRNA aceF): 1.1
- Growth, mean colony biomass (n=4) (gRNA alaS): 1.087
- Growth, mean colony biomass (n=4) (gRNA argS): 1.119
- Growth, mean colony biomass (n=4) (gRNA asnS): 1.015
- Growth, mean colony biomass (n=4) (gRNA bamA): 1.043
- Growth, mean colony biomass (n=4) (gRNA bamD): 1.088
- Growth, mean colony biomass (n=4) (gRNA bioA): 1.01
- Growth, mean colony biomass (n=4) (gRNA can): 1.059
- Growth represented as mean colony biomass (gRNA cca): 0.9249
- Growth represented as mean colony biomass (gRNA coaA): 0.8479
- Growth, mean colony biomass (n=4) (gRNA csrA): 1.056
- Growth represented as mean colony biomass (gRNA cydA): 1.062
- Growth represented as mean colony biomass (gRNA cydX): 1.061
- Growth represented as mean colony biomass (gRNA dapD): 0.9522
- Growth represented as mean colony biomass (gRNA dapE): 1.007
- Growth represented as mean colony biomass (gRNA der): 0.9768
- Growth represented as mean colony biomass (gRNA dfp): 0.8989
- Growth, mean colony biomass (n=4) (gRNA dnaC): 1.065
- Growth represented as mean colony biomass (gRNA dnaE): 1.058
- Growth represented as mean colony biomass (gRNA dnaN): 1.037
- Growth represented as mean colony biomass (gRNA dnaX): 0.9219
- Growth, mean colony biomass (n=4) (gRNA dut): 0.9955
- Growth represented as mean colony biomass (gRNA eno): 0.9728
- Growth represented as mean colony biomass (gRNA era): 1.02
- Growth represented as mean colony biomass (gRNA fabA): 0.9775
- Growth represented as mean colony biomass (gRNA fabG): 1.01
- Growth represented as mean colony biomass (gRNA fabI): 0.9675
- Growth represented as mean colony biomass (gRNA fdx): 0.979
- Growth represented as mean colony biomass (gRNA fldA): 1.057
- Growth, mean colony biomass (n=4) (gRNA folA): 0.9636
- Growth represented as mean colony biomass (gRNA folB): 1.017
- Growth, mean colony biomass (n=4) (gRNA folC): 1.012
- Growth represented as mean colony biomass (gRNA folE): 0.9169
- Growth represented as mean colony biomass (gRNA folP): 0.9924
- Growth represented as mean colony biomass (gRNA frr): 0.9411
- Growth, mean colony biomass (n=4) (gRNA ftsA): 0.9154
- Growth represented as mean colony biomass (gRNA gapA): 0.9821
- Growth, mean colony biomass (n=4) (gRNA glmS): 1.055
- Growth represented as mean colony biomass (gRNA glmU): 1.014
- Growth represented as mean colony biomass (gRNA gltX): 0.9512
- Growth, mean colony biomass (n=4) (gRNA glyA): 1.052
- Growth represented as mean colony biomass (gRNA groS): 0.9583
- Growth represented as mean colony biomass (gRNA grpE): 1.032
- Growth represented as mean colony biomass (gRNA guaA): 0.9865
- Growth, mean colony biomass (n=4) (gRNA hemD): 1.036
- Growth represented as mean colony biomass (gRNA hemG): 0.9689
- Growth represented as mean colony biomass (gRNA hemH): 0.992
- Growth represented as mean colony biomass (gRNA hemL): 0.9608
- Growth represented as mean colony biomass (gRNA higA): 1.023
- Growth represented as mean colony biomass (gRNA hisS): 0.9896
- Growth represented as mean colony biomass (gRNA holD): 0.9599
- Growth represented as mean colony biomass (gRNA hscA): 0.9776
- Growth, mean colony biomass (n=4) (gRNA infA): 1.073
- Growth represented as mean colony biomass (gRNA infC): 1.06
- Growth represented as mean colony biomass (gRNA iscU): 0.9911
- Growth represented as mean colony biomass (gRNA ispB): 0.9696
- Growth represented as mean colony biomass (gRNA ispF): 0.9551
- Growth, mean colony biomass (n=4) (gRNA leuS): 1.366
- Growth, mean colony biomass (n=4) (gRNA lexA): 1.376
- Growth represented as mean colony biomass (gRNA lolC): 0.8957
- Growth, mean colony biomass (n=4) (gRNA lptA): 1.212
- Growth, mean colony biomass (n=4) (gRNA lptB): 1.0261
- Growth represented as mean colony biomass (gRNA lptC): 1.089
- Growth represented as mean colony biomass (gRNA lptE): 1.06
- Growth represented as mean colony biomass (gRNA lptF): 1.019
- Growth represented as mean colony biomass (gRNA lptG): 1.007
- Growth represented as mean colony biomass (gRNA lpxC): 0.3105
- Growth represented as mean colony biomass (gRNA lpxD): 1.005
- Growth, mean colony biomass (n=4) (gRNA mnmA): 1.028
- Growth, mean colony biomass (n=4) (gRNA mrdB): 0.9292
- Growth represented as mean colony biomass (gRNA mreB): 0.9175
- Growth represented as mean colony biomass (gRNA mreC): 0.8842
- Growth, mean colony biomass (n=4) (gRNA msbA): 1.129
- Growth, mean colony biomass (n=4) (gRNA mukF): 0.98
- Growth represented as mean colony biomass (gRNA murB): 1.054
- Growth represented as mean colony biomass (gRNA murC): 0.9542
- Growth, mean colony biomass (n=4) (gRNA murI): 1.202
- Growth, mean colony biomass (n=4) (gRNA nadK): 1.005
- Growth represented as mean colony biomass (gRNA nusB): 1.054
